Data on 16 compounds can be found in ChEMBL document CHEMBL2434851, “Squaric acid/4-aminoquinoline conjugates: novel potent antiplasmodial agents” (Eur J Med Chem, 2013).

Each structure is given as a SMILES string. Bounds are passed on as bounds.

A short description of one data set: in vitro. The settings on record: human.
The next data set relates to HEK-293T. The data set can be described thus: Cytotoxicity against HEK293T cells assessed as cell viability after 48 hrs by MTT assay. Type of data set: cell-based. The settings on record: Homo sapiens.
Another data set has as its target T1, Papain (Carica papaya, UniProt P00784).
T1 sequence (P00784 whole entry): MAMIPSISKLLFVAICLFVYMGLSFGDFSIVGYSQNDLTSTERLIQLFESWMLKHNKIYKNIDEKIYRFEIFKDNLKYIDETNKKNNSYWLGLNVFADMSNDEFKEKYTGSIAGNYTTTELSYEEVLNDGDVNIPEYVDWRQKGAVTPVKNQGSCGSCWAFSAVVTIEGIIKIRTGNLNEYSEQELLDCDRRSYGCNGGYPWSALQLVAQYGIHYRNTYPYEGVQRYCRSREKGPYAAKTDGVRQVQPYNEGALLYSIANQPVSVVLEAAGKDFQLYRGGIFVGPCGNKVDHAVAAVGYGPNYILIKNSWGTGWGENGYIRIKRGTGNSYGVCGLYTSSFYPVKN
The data set can be described thus: Inhibition of papaya papain using Z-Leu-Leu-Arg-AMC as substrate after 30 mins by fluorescence microplate reader analysis.

The subject of another data set is Plasmodium falciparum. The data set can be described thus: microbe, parasite or virus in culture. As to conditions: W2, 48 h.
The next data set has as its system NIH3T3. The data set can be described thus: Cytotoxicity against mouse NIH/3T3 cells assessed as cell viability after 48 hrs by MTT assay. As to conditions: NIH3T3, 48 h. Type of data set: cell-based. A general note: Formazan colour is commonly taken as a measure of viable cells.
A short description of data set [1]: Inhibition of Plasmodium falciparum falcipain-2 using Z-Leu-Arg-AMC as substrate preincubated for 10 mins followed by substrate addition by spectrofluorometric analysis.

Description for Plasmodium falciparum: Antiplasmodial activity against ring stage of chloroquine-resistant Plasmodium falciparum W2 infected in human RBC after 48 hrs by flow cytometric analysis
Description for in vitro: Selectivity index, ratio of IC50 for HEK293T cells to IC50 for ring stage of Plasmodium falciparum W2 infected in human RBC

On to `O=c1c(NCCCNc2ccnc3cc(Cl)ccc23)c(NCCCNc2ccnc3cc(Cl)ccc23)c1=O`, for which the selectivity ratio in “in vitro” was above 505. In addition, the IC50 – broadly, the midpoint of a concentration-inhibition curve – was above 50 µM in the data set on HEK-293T, above 10 µM on Papain, 0.099 µM with Plasmodium falciparum and above 50 µM with NIH3T3.
Regarding `CCCCOc1c(NCCCC(C)Nc2cc(OC)cc3cccnc23)c(=O)c1=O` (stereo not drawn), the selectivity ratio in the data set “in vitro” was above 2. For the same compound, the 50% inhibitory concentration (IC50) is above 50 µM in the data set on HEK-293T, above 10 µM against Papain, 18.6 µM in the data set on Plasmodium falciparum and above 50 µM with NIH3T3.
As for `O=c1c(N2CCC(Nc3ccnc4cc(Cl)ccc34)CC2)c(N2CCC(Nc3ccnc4cc(Cl)ccc34)CC2)c1=O`, in the data set “in vitro”, the selectivity ratio is above 476. Also, the IC50 was above 50 µM in the data set with HEK-293T, 0.105 µM in the data set on Plasmodium falciparum and above 50 µM with NIH3T3.
Regarding `O=c1c(NCCCCNc2ccnc3cc(Cl)ccc23)c(NCCCCNc2ccnc3cc(Cl)ccc23)c1=O`, in the data set “in vitro”, the selectivity ratio is above 526. The IC50 is above 50 µM in the data set on HEK-293T, above 10 µM against Papain, 0.095 µM in the data set on Plasmodium falciparum and above 50 µM with NIH3T3.
On to `CCCCOc1c(N2CCN(c3ccnc4cc(Cl)ccc34)CC2)c(=O)c1=O`, for which, in the data set “in vitro”, the selectivity ratio was above 6. In addition, the IC50 with HEK-293T was above 50 µM; on Papain it was above 10 µM; in the data set with Plasmodium falciparum, 7.82 µM; in the data set on NIH3T3, above 50 µM.
As for `COc1cc(NC(C)CCCNc2c(NCCCC(C)Nc3cc(OC)cc4cccnc34)c(=O)c2=O)c2ncccc2c1` (stereo not drawn), the selectivity ratio in “in vitro” is above 22. Further, the IC50 is above 50 µM in the data set with HEK-293T, 2.21 µM with Plasmodium falciparum and above 50 µM with NIH3T3.
Consider `O=c1c(NCCNc2ccnc3cc(Cl)ccc23)c(NCCNc2ccnc3cc(Cl)ccc23)c1=O`, for which, in the data set “in vitro”, the selectivity ratio came out at 25. Moreover, the IC50 with HEK-293T was 5 µM; at Papain, above 10 µM; in the data set with Plasmodium falciparum it was 0.2 µM; with NIH3T3 it was 4.5 µM.
Take `CCCCOc1c(NCCCNc2ccnc3cc(Cl)ccc23)c(=O)c1=O`: the IC50 (in data set [1]; on Papain; with Plasmodium falciparum) was above 10 µM each time.
Take `O=C(NCCNc1ccnc2cc(Cl)ccc12)[C@H](Cc1ccccc1)Nc1c(N[C@@H](Cc2ccccc2)C(=O)NCCNc2ccnc3cc(Cl)ccc23)c(=O)c1=O`: the selectivity ratio in “in vitro” was above 70. Also, the IC50 with HEK-293T is above 50 µM; in data set [1] it was above 50 µM; on Papain, above 10 µM; in the data set with Plasmodium falciparum, 0.71 µM; in the data set with NIH3T3, above 50 µM.
For `CCCCOc1c(NCCNc2ccnc3cc(Cl)ccc23)c(=O)c1=O`, the selectivity ratio in the data set “in vitro” is above 24. Besides, the IC50 in the data set with HEK-293T is above 50 µM; in data set [1] it was above 10 µM; against Papain it was above 10 µM; in the data set with Plasmodium falciparum, 2.04 µM; with NIH3T3 it was above 50 µM.
In the case of `COc1c(NCCCNc2ccnc3cc(Cl)ccc23)c(=O)c1=O`, in the data set “in vitro”, the selectivity ratio was above 27. In addition, the IC50 in the data set with HEK-293T is above 50 µM; on Papain it was above 10 µM; with Plasmodium falciparum it was 1.84 µM; with NIH3T3, above 50 µM.
As to `CCN(CC)CCCC(C)Nc1ccnc2cc(Cl)ccc12` (stereo not drawn) [CHLOROQUINE], the IC50 with HEK-293T and in the data set with NIH3T3 was above 50 µM in each case.
On to `CCCCOc1c(OCCCC)c(=O)c1=O` [SQUARIC ACID DIBUTYL ESTER], for which the concentration for half-maximal inhibition (IC50) in the data set with Plasmodium falciparum amounted to 8.84 µM.
Turning to `CC(C)C[C@H](NC(=O)[C@H]1O[C@@H]1C(=O)O)C(=O)NCCCCN=C(N)N` [E-64], the IC50 in data set [1] is 0.06 µM; against Papain, 0.007 µM.
For the compound `CCCCOc1c(N2CCC(Nc3ccnc4cc(Cl)ccc34)CC2)c(=O)c1=O`, the selectivity ratio in the data set “in vitro” came out at 8. In addition, the IC50 came to 37.9 µM in the data set with HEK-293T, 4.71 µM with Plasmodium falciparum and 45.7 µM in the data set with NIH3T3.
As for `COc1c(NCCNc2ccnc3cc(Cl)ccc23)c(=O)c1=O`, the selectivity ratio in the data set “in vitro” is above 32. Also, the IC50 with HEK-293T is above 50 µM; in data set [1], above 10 µM; on Papain, above 10 µM; in the data set on Plasmodium falciparum it was 1.56 µM; in the data set with NIH3T3 it was above 50 µM.
